In PubChem BioAssay (NCI) one finds TGI data, which are given here for nine compounds.

Test systems include CAKI-1 renal; HCC-2998 colon; EKVX NSCLC; HCT-15 colon; SF-539 CNS; CCRF-CEM leukemia; NCI-H460 lung; A549 NSCLC; DU-145 prostate; MDA-N; SK-OV-3 ovarian; SK-MEL-5 melanoma; COLO 205 colon; 786-0 renal; A498 renal; TK-10 renal; HL-60(TB) leukemia.
Holding throughout (assay): growth of human tumour cells (NCI), 48 h

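Cultured in 96-well plates, cells were exposed to test compound for 48 hours across five concentrations. TGI: concentration producing complete growth inhibition.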

Regarding `OCCCCn1cc(Cn2ncc3c(NCc4ccccc4)ncnc32)nn1`, the TGI with CAKI-1 renal, with HCC-2998 colon, in the test on EKVX NSCLC, in the test on HCT-15 colon, with SF-539 CNS and in the test with CCRF-CEM leukemia was greater than 100 µM throughout. Also, the TGI in the test on NCI-H460 lung, with A549 NSCLC, in the test on DU-145 prostate, in the test with MDA-N, with SK-OV-3 ovarian and in the test with SK-MEL-5 melanoma was greater than 100 µM throughout. Besides, the TGI with COLO 205 colon, in the test on 786-0 renal, with A498 renal and with TK-10 renal was greater than 100 µM in each case.
On to `CC(C)OC(=O)[C@H]1ON2O[C@H](O[C@@H]3CCCC[C@H]3c3ccccc3)C([Si](C)(C)c3ccccc3)[C@H]3OC(=O)[C@@H]1C32` (stereo not given in full), for which the TGI in the test with CAKI-1 renal, with HCC-2998 colon, in the test on EKVX NSCLC, with HCT-15 colon, in the test with SF-539 CNS and in the test with CCRF-CEM leukemia was greater than 100 µM each time. For the same compound, the TGI in the test with NCI-H460 lung, in the test with A549 NSCLC, in the test with DU-145 prostate, in the test on HL-60(TB) leukemia, in the test on SK-OV-3 ovarian and in the test with SK-MEL-5 melanoma was greater than 100 µM each time. The TGI in the test on COLO 205 colon, with 786-0 renal, in the test with A498 renal and with TK-10 renal was greater than 100 µM in each case.
With `Nc1nc(Cl)c2ncn(Cc3cccc(CCl)c3)c2n1`, the TGI in the test on CAKI-1 renal is 5.37 µM; with HCC-2998 colon, 4.86 µM; with EKVX NSCLC, 21.2 µM; in the test with HCT-15 colon, 5.58 µM; in the test on SF-539 CNS it was 20 µM; with CCRF-CEM leukemia, greater than 30.7 µM. The TGI in the test with NCI-H460 lung is 27 µM; in the test with A549 NSCLC, 29.9 µM; in the test with DU-145 prostate, 18.6 µM; with HL-60(TB) leukemia it was greater than 36.1 µM; with SK-OV-3 ovarian, 50.8 µM; with SK-MEL-5 melanoma, 15.9 µM. Further, the TGI with COLO 205 colon worked out at 30.1 µM; in the test on 786-0 renal it was 22.6 µM; with A498 renal, 50.8 µM; in the test on TK-10 renal, 22.1 µM.
Consider `CCOC(=O)CSC1NC(C(=O)OC)CC1OC` (stereo not given), for which the TGI in the test on CAKI-1 renal, in the test with HCC-2998 colon, in the test on EKVX NSCLC, with HCT-15 colon, in the test with CCRF-CEM leukemia and in the test with NCI-H460 lung was greater than 100 µM each time. Further, the TGI in the test on A549 NSCLC, in the test with DU-145 prostate, in the test with MDA-N, in the test on SK-OV-3 ovarian, in the test with SK-MEL-5 melanoma and with COLO 205 colon was greater than 100 µM in each case. For the same compound, the TGI in the test with 786-0 renal, in the test with A498 renal and in the test with TK-10 renal was greater than 100 µM throughout.
`CCc1c(CNC2=NCCN2)c(CC)c(CNC2=NCCN2)c(CC)c1CNC1=NCCN1`: the TGI in the test with CAKI-1 renal, in the test with HCC-2998 colon, in the test with EKVX NSCLC, with HCT-15 colon, in the test with SF-539 CNS and in the test on CCRF-CEM leukemia was greater than 100 µM each time. Also, the TGI in the test with NCI-H460 lung, in the test with A549 NSCLC, with DU-145 prostate, in the test with MDA-N, in the test on SK-OV-3 ovarian and in the test on SK-MEL-5 melanoma was greater than 100 µM each time. Also, the TGI with COLO 205 colon, in the test on 786-0 renal, in the test with A498 renal and in the test with TK-10 renal was greater than 100 µM in each case.
As to `Nc1cc2ncnn2c(SCC(=O)N/N=C/C(Br)=C\c2ccccc2)n1`, the TGI in the test on CAKI-1 renal was 37.2 µM; with HCC-2998 colon, 40.6 µM; in the test on EKVX NSCLC it was greater than 100 µM; in the test with HCT-15 colon, 37.1 µM; in the test on SF-539 CNS it was 39.2 µM; in the test on CCRF-CEM leukemia it was greater than 100 µM. In addition, the TGI stood at 53.5 µM with NCI-H460 lung; 60.1 µM in the test with A549 NSCLC; 31.6 µM in the test with MDA-N; 62.4 µM in the test with HL-60(TB) leukemia; 26.2 µM with SK-MEL-5 melanoma; 41.1 µM with COLO 205 colon. Moreover, the TGI turned out to be 36.9 µM in the test on 786-0 renal and 72.3 µM in the test on TK-10 renal.
For the compound `COC1=C2CC(C)CC(OC)C(OC(=O)CN)[C@H](C)/C=C(\C)C(OC(N)=O)C(OC)/C=C\C=C(/C)C(=O)NC(=CC1=O)C2=O` (stereo not given in full), the TGI worked out at 17 µM with CAKI-1 renal; 7.81 µM in the test with HCC-2998 colon; 13.1 µM with EKVX NSCLC; 12.6 µM in the test with HCT-15 colon; 12.7 µM with SF-539 CNS; 20.9 µM with NCI-H460 lung. Besides, the TGI in the test with A549 NSCLC was found to be 21.8 µM; with DU-145 prostate, 16.4 µM; with MDA-N, 3.34 µM; in the test with SK-OV-3 ovarian, 16.7 µM; with SK-MEL-5 melanoma it was 4.51 µM; in the test on COLO 205 colon, 0.559 µM. Moreover, the figures for the TGI in the test on 786-0 renal, in the test on A498 renal and with TK-10 renal were 6.45 µM, 24.7 µM and 15.6 µM, respectively.
Take `CCOC(=O)c1c(N2CCCC2)[nH]c(=O)c(C(c2ccc(Cl)c([N+](=O)[O-])c2)c2c(O)c(C(=O)OCC)c(N3CCCC3)[nH]c2=O)c1O`: the TGI with CAKI-1 renal is 60.6 µM; in the test with HCC-2998 colon it was greater than 100 µM; in the test on EKVX NSCLC, greater than 100 µM; with HCT-15 colon, greater than 100 µM; in the test on SF-539 CNS it was 41.6 µM; in the test with CCRF-CEM leukemia, 79.3 µM. Moreover, the TGI was greater than 100 µM in the test with NCI-H460 lung; greater than 100 µM in the test with A549 NSCLC; greater than 100 µM with DU-145 prostate; 79.6 µM in the test on MDA-N; greater than 100 µM with SK-OV-3 ovarian; greater than 100 µM with SK-MEL-5 melanoma. The TGI in the test on COLO 205 colon was greater than 100 µM; in the test on 786-0 renal it was greater than 100 µM; with A498 renal, greater than 100 µM; in the test with TK-10 renal it was 59.2 µM.
In the case of `O=C(CSCC(=O)N/N=C\c1ccc(O)c(O)c1O)N/N=C\c1ccc(O)c(O)c1O`, the TGI in the test on CAKI-1 renal came to 37.1 µM; in the test with HCC-2998 colon it was 46.1 µM; in the test on EKVX NSCLC it was 50.4 µM; in the test on HCT-15 colon it was 29.1 µM; in the test with SF-539 CNS, 37.9 µM; in the test on CCRF-CEM leukemia it was 4.75 µM. Besides, the TGI in the test on NCI-H460 lung was 56.3 µM; in the test on A549 NSCLC, 53.7 µM; in the test on DU-145 prostate it was 29.1 µM; in the test with HL-60(TB) leukemia, 49.9 µM; in the test with SK-OV-3 ovarian it was greater than 100 µM; in the test with SK-MEL-5 melanoma, 36.3 µM. For the same compound, the TGI in the test on COLO 205 colon is greater than 100 µM; with 786-0 renal it was 4.56 µM; in the test with A498 renal, greater than 100 µM; in the test on TK-10 renal, 42 µM.
